Results: US20060178374A1, “Aminoheteroaryl compounds as protein kinase inhibitors” (AGOURON PHARMACEUTICALS, INC., priority 2004, published 2006)

Target: HGFR (c-Met) (Homo sapiens, UniProt P08581)
Assay: HGFR Continuous-Coupled Spectrophotometric Assay
Type: biochemical
Conditions: HGFR enzyme 50 nM, Met-2 peptide substrate, 37° C.
Experimental: The general procedure is as follows: compounds and kinase assay reagents are introduced into test wells. The assay is initiated by addition of the kinase enzyme. Enzyme inhibitors reduce the measured activity of the enzyme.
In the continuous-coupled spectrophotometric assay the time-dependent production of ADP by the kinase is determined by analysis of the rate of consumption of NADH by measurement of the decrease in absorbance at 340 nm. As the PK produces ADP it is re-converted to ATP by reaction with phosphoenol pyruvate and pyruvate kinase. Pyruvate is also produced in this reaction. Pyruvate is subsequently converted to lactate by reaction with lactate dehydrogenase, which simultaneously converts NADH to NAD.
HGFR Continuous-Coupled Spectrophotometric Assay
This assay analyzes the tyrosine kinase activity of HGFR on the Met-2 substrate peptide, a peptide derived from the activation loop of the HGFR.
• 1. […] Dissolve up in 200 mM HEPES, pH 7.5 at 10 mM stock. • 3. 1 M PEP (phospho-enol-pyruvate) in 200 mM HEPES, pH 7.5 • 4. 100 mM NADH (B-Nicotinamide Adenine Dinucleotide, Reduced Form) in 200 mM HEPES, pH 7.5 • 5. 4 M MgCl2 (Magnesium Chloride) in ddH2O 6. 1 M DTT (Dithiothreitol) in 200 mM HEPES, pH 7.5 • 7. 15 Units/mL LDH (Lactic Dehydrogenase) • 8. 15 Units/mL PK (Pyruvate Kinase) • 9. 5M NaCl dissolved in ddH2O • 10. Tween-20 (Protein Grade) 10% Solution • 11. 1 M HEPES buffer: (N-[2-Hydroxethyl]piperazine-N-[2-ethanesulfonic acid]) Sodium Salt. Dissolve in ddH2O, adjust pH to 7.5, bring volume to 1 L. Filter at 0.1 μm. • 12. […] 100% DMSO (SIGMA) • 14. […] Beckman DU-650 w/ micro cell holders • 18. Beckman 4-position micro cell cuvette Procedure:
Prep Dilution Buffer (DB) for Enzyme (For 30 mL prep) • 1. DB final concentration is 2 mM DTT, 25 mM NaCl2, 5 mM MgCl2, 0.01% Tween-20, and 50 mM HEPES buffer, pH 7.5. • 2. Make up 50 mM HEPES by adding 1.5 mL 1 M HEPES into 28.1 mL of ddH2O. Add rest of the reagents. Into 50 mL conical vial, add 60 μL of 1M DTT, 150 μL 5M NaCl2, 150 μL 1M MgCl2, and 30 μL of 10% Tween-20 to give total volume of 30 mL. • 3. Vortex for 5-10 seconds. • 4. Aliquot out DB at 1 mL/tube and label tubes as “DB HGFR” • 5. Note: This can be prepared and stored ahead of time. • 6. Freeze un-used aliquots in microcentrifuge tubes at −20° C. freezer.
Prep Compounds • 1. For compound dilution plate, add 4 μL of 10 mM stock into column 1 of plate, and bring volume to 100 μL with 100% DMSO. • 2. Set up the Precision 2000 dilution method. A final concentration of 200 μM compound in 50% DMSO, 100 mM HEPES (1:2 serial dilution).
Prep Coupled Enzymatic Buffer:
1. Final concentration in assay:
• 2. For a 10 mL reaction buffer add 10 μL of 1M PEP, 33 μL of 100 mM NADH, 50 μL of 4M MgCl2, 20 μL of 1M DTT, 6 μL of 500 mM ATP, and […] of 10 mM Met-2 peptide into 100 mM HEPES buffer pH 7.5 and vortex/mix. • 3. Add coupling enzymes, LDH and PK, into reaction mix. Mix by gentle inversion.
1. Spectrophotometer settings:
• 2. Add 85 μL of CE reaction mix into each well of assay plate. • 3. Add 5 μL of diluted compound into a well of the assay plate. • 4. Add 5 μL of 50% DMSO for negative control into last column of assay plate. • 5. Mix with multi-channel pipettor or orbital shaker. • 6. Pre-incubate for 10 minutes at 37° C. • 7. Add 10 μL of 500 nM HGFR to each well of assay plate; the final HGFR concentration is 50 nM in a total final volume of 100 μL. • 8. Measure activity for 10 minutes at λ=340 nm and 37° C.
Ki data were obtained using the HGFR Continuous-Coupled Spectrophotometric Assay, and IC50 data were obtained using the Cellular HGFR Autophosphorylation Assay, both of which are described above.

Chain of HGFR (c-Met) (P08581 974-1390): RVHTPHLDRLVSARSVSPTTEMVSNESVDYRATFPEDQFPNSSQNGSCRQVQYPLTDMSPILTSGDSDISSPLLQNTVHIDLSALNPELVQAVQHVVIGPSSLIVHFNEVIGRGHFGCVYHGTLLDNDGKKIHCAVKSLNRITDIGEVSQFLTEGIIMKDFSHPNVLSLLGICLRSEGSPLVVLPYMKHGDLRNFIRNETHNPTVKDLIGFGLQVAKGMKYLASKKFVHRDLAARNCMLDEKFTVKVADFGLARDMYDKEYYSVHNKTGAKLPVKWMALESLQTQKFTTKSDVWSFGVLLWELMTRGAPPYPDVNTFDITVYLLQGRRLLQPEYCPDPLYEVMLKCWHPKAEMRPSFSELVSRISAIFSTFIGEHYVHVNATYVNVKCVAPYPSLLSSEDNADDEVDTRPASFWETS

Row | Structure (SMILES) | Ki [nM]
1 | COc1cc(-c2cnc(N)c(OC(C)c3c(Cl)ccc(F)c3Cl)c2)ccc1OCCN1CCCC1 (centres unmarked) [Example 111, 3-[1-(2,6-dichloro-3-fluorophenyl)ethoxy]-5-[3-methoxy-4-(2-pyrrolidin-1-ylethoxy)phenyl]pyridin-2-amine] | 28
2 | CC(Oc1cc(-c2ccc(NC3CCNCC3)nc2)cnc1N)c1c(Cl)ccc(F)c1Cl (centres unmarked) [Example 76, 5-[1-(2,6-Dichloro-3-fluoro-phenyl)-ethoxy]-N6′-piperidin-4-yl-[3,3′]bipyridinyl-6,6′-diamine] | 22
3 | CC(Oc1cc(-c2ccc(OCCN3CCCC3)cc2)cnc1N)c1c(Cl)ccc(F)c1Cl (centres unmarked) [Example 105, 3-[1-(2,6-dichloro-3-fluorophenyl)ethoxy]-5-[4-(2-pyrrolidin-1-ylethoxy)phenyl] pyridin-2-amine] | 44
4 | CC(Oc1cc(-c2cnc(OC3CCN(C(=O)OC(C)(C)C)CC3)nc2)cnc1N)c1c(Cl)ccc(F)c1Cl (centres unmarked) [Example 114, tert-butyl 4-[(5-{6-amino-5-[1-(2,6-dichloro-3-fluorophenyl)ethoxy]pyridin-3-yl}pyrimidin-2-yl)oxy]piperidine-1-carboxylate] | 480
5 | CC(Oc1cc(-c2ccc(C(=O)N3CCS(=O)(=O)CC3)cc2)cnc1N)c1c(Cl)ccc(F)c1Cl (centres unmarked) [Example 5, 3-[1-(2,6-Dichloro-3-fluorophenyl)ethoxy]-5-{4-[(1,1-dioxidothiomorpholin-4-yl)carbonyl]phenyl)pyridine-2-amine] | 31
6 | CC(Oc1cc(-c2cccc(NS(C)(=O)=O)c2)cnc1N)c1c(Cl)ccc(F)c1Cl (centres unmarked) [Example 141, N-(3-{6-amino-5-[1-(2,6-dichloro-3-fluorophenyl)ethoxy]pyridin-3-yl}phenyl) methanesulfonamide] | 54
7 | CC(Oc1cc(-c2ccc(C(=O)N3CCC(N(C)C)CC3)cc2)cnc1N)c1c(Cl)ccc(F)c1Cl (centres unmarked) [Example 6] | 24
8 | CC(Oc1cc(-c2ccc(CC(=O)N3CCN(C)CC3)cc2)cnc1N)c1c(Cl)ccc(F)c1Cl (centres unmarked) [Example 98, 2-(4-{6-Amino-5-[1-(2,6-dichloro-3-fluoro-phenyl)-ethoxy]-pyridin-3-yl}-phenyl)-1-(4-methyl-piperazin-1-yl)-ethanone] | 68
9 | Cc1cn(-c2cnc(N)c(OC(C)c3c(Cl)ccc(F)c3Cl)c2)cn1 (centres unmarked) [Example 85, 3-[1-(2,6-Dichloro-3-fluoro-phenyl)-ethoxy]-5-(4-methyl-imidazol-1-yl)-pyridin-2-ylamine] | 780
10 | COc1ccc(-c2cnc(N)c(OC(C)c3c(Cl)ccc(F)c3Cl)c2)cc1 (centres unmarked) [Example 131, 3-[1-(2,6-dichloro-3-fluorophenyl)ethoxy]-5-(4-methoxyphenyl)pyridin-2-amine] | 133
11 | CC(Oc1cc(-c2ccc(OC3CCNCC3)nc2)cnc1N)c1c(Cl)ccc(F)c1Cl (centres unmarked) [Example 71, 5-[1-(2,6-Dichloro-3-fluoro-phenyl)-ethoxy]-6′-(piperidin-4-yloxy)-[3,3′]bipyridinyl-6-ylamine] | 27
12 | C[C@@H](Oc1nc(-c2ccc(C(=O)O)cc2)cnc1N)c1c(Cl)ccc(F)c1Cl [Example 47, 4-{5-Amino-6-[(R)-1-(2,6-dichloro-3-fluoro-phenyl)-ethoxy]-pyrazin-2-yl}-benzoic acid] | 154
13 | CC(Oc1cc(-c2ccc(N3CCNCC3)nc2)cnc1N)c1c(Cl)ccc(F)c1Cl (centres unmarked) [Example 73, 5-[1-(2,6-Dichloro-3-fluoro-phenyl)-ethoxy]-6′-piperazin-1-yl-[3,3′]bipyridinyl-6-ylamine] | 21
14 | CC(Oc1cc(-c2ccc(CC(=O)N3CC4C(N)C4C3)cc2)cnc1N)c1c(Cl)ccc(F)c1Cl (centres unmarked) [Example 101, 1-(6-Amino-3-aza-bicyclo[3.1.0]hex-3-yl)-2-(4-{6-amino-5-[1-(2,6-dichloro-3-fluoro-phenyl)-ethoxy]-pyridin-3-yl}-phenyl)-ethanone] | 39
15 | COc1cc(-c2cnc(N)c(OC(C)c3c(Cl)ccc(F)c3Cl)c2)ccc1C(=O)N1CCCCC1 (centres unmarked) [Example 24, 3-[1-(2,6-dichloro-3-fluorophenyl)ethoxy]-5-[3-methoxy-4-(piperidin-1-ylcarbonyl)phenyl]pyridin-2-amine] | 1030
16 | CC(Oc1cc(-c2cn(CC(=O)NCCN3CCCC3)cn2)cnc1N)c1c(Cl)ccc(F)c1Cl (centres unmarked) [Example 60, 2-(4-{6-Amino-5-[1-(2,6-dichloro-3-fluoro-phenyl)-ethoxy]-pyridin-3-yl}-imidazol-1-yl)-N-(2-pyrrolidin-1-yl-ethyl)-acetamide] | 599
17 | CC(Oc1cc(-c2ccc(C(=O)N3CCN(C4CCN(C)CC4)CC3)cc2)cnc1N)c1c(Cl)ccc(F)c1Cl (centres unmarked) [Example 7, 3-[1-(2,6-Dichloro-3-fluorophenyl)ethoxy]-5-(4-{[4-(1-methylpiperidin-4-yl)piperazin-1-yl]carbonyl)phenyl)pyridin-2-amine] | 26
18 | CC(Oc1cc(-c2cccc(NC(=O)N3CCNCC3)c2)cnc1N)c1c(Cl)ccc(F)c1Cl (centres unmarked) [Example 45, Piperazine-1-carboxylic acid (3-{6-amino-5-[1-(2,6-dichloro-3-fluoro-phenyl)-ethoxy]-pyridin-3-yl}-phenyl)-amide] | 96
19 | CCN(CCO)C(=O)c1ccc(-c2cnc(N)c(OC(C)c3c(Cl)ccc(F)c3Cl)c2)cc1 (centres unmarked) [Example 1, 4-{6-Amino-5-[1-(2,6-dichloro-3-fluorophenyl)ethoxy]-pyridin-3-yl}N-ethyl-N-(2-hydroxyethyl)benzamide] | 39
20 | COc1cc(-c2cnc(N)c(OC(C)c3c(Cl)ccc(F)c3Cl)c2)ccc1CO (centres unmarked) [Example 26, (4-{6-amino-5-[1-(2,6-dichloro-3-fluorophenyl)ethoxy]pyridin-3-yl}-2-methoxyphenyl) methanol] | 79.5
21 | CC(Oc1cc(-c2ccc(O)cc2)cnc1N)c1c(Cl)ccc(F)c1Cl (centres unmarked) [Example 136, 4-{6-amino-5-[1-(2,6-dichloro-3-fluorophenyl)ethoxy]pyridin-3-yl}phenol] | 73
22 | CC(Oc1cc(-c2cccc(CNC(=O)CCN)c2)cnc1N)c1c(Cl)ccc(F)c1Cl (centres unmarked) [Example 72, 3-Amino-N-(3-{6-amino-5-[1-(2,6-dichloro-3-fluoro-phenyl)-ethoxy]-pyridin-3-yl}-benzyl)-propionamide] | 49
23 | CC(Oc1cc(-c2ccc(C(=O)N(C)C)cc2)cnc1N)c1c(Cl)ccc(F)c1Cl (centres unmarked) [Example 135, 4-{6-amino-5-[1-(2,6-dichloro-3-fluorophenyl)ethoxy]pyridin-3-yl}-N,N-dimethylbenzamide] | 37
24 | CC(Oc1cc(-c2ccc(C3(C#N)CCNCC3)cc2)cnc1N)c1c(Cl)ccc(F)c1Cl (centres unmarked) [Example 152, 4-(4-{6-amino-5-[1-(2,6-dichloro-3-fluorophenyl)ethoxy]pyridin-3-yl}phenyl) piperidine-4-carbonitrile] | 12

Same assay, conditions: compound at 1 μM

Row | Structure (SMILES) | inhibition at 1 µM [%]
25 | CC(Oc1cc(-c2ccc(C(=O)N3CCS(=O)(=O)CC3)cc2)cnc1N)c1c(Cl)ccc(F)c1Cl (centres unmarked) [Example 5, 3-[1-(2,6-Dichloro-3-fluorophenyl)ethoxy]-5-{4-[(1,1-dioxidothiomorpholin-4-yl)carbonyl]phenyl)pyridine-2-amine] | 96
26 | CC(Oc1cc(-c2ccc(C(=O)N3CCC(N(C)C)CC3)cc2)cnc1N)c1c(Cl)ccc(F)c1Cl (centres unmarked) [Example 6] | 95
27 | Nc1ncc(Br)cc1OC1CCCCc2ccc(F)cc21 (centres unmarked) [Example 35, 5-Bromo-3-(3-fluoro-6,7,8,9-tetrahydro-5H-benzocyclohepten-5-yloxy)-pyridin-2-ylamine] | 9
28 | CC(Oc1cc(-c2ccc(C(=O)N3CCN(C4CCN(C)CC4)CC3)cc2)cnc1N)c1c(Cl)ccc(F)c1Cl (centres unmarked) [Example 7, 3-[1-(2,6-Dichloro-3-fluorophenyl)ethoxy]-5-(4-{[4-(1-methylpiperidin-4-yl)piperazin-1-yl]carbonyl)phenyl)pyridin-2-amine] | 96
29 | CCN(CCO)C(=O)c1ccc(-c2cnc(N)c(OC(C)c3c(Cl)ccc(F)c3Cl)c2)cc1 (centres unmarked) [Example 1, 4-{6-Amino-5-[1-(2,6-dichloro-3-fluorophenyl)ethoxy]-pyridin-3-yl}N-ethyl-N-(2-hydroxyethyl)benzamide] | 94
